Reference: patent US4707485A, “Substituted te[1]trahydroisoquinoline derivatives having β-adrenergic receptor activity” (Smithkline Beckman Corporation, priority 1985, dated 1987)
Where a name gives a salt, the structure may show the parent alone.

Target: T1, β-adrenergic receptors (Cavia porcellus, UniProt H0W3H1)
T1 construct: The ventricles and adipose tissue were carefully cut away to leave the atria as an intact pair; from tissue; host or cells: isolated guinea pig atria (intact pair)
Experiment: Inhibition of isoproterenol-induced enhancement of the rate of contraction of guinea pig atrial pairs in vitro (KB as β-antagonist)
Type: cell-based
Details: guinea pig atria, versus isoproterenol, KB from dose ratio of isoproterenol EC50, 37° C., read-out: receptor dissociation constant (KB) as a β-antagonist
Procedure: The β-blocking activity of the compounds of structure (I) can be assessed in a test for inhibition of isoproterenol-induced enhancement of the rate of contraction of guinea pig atrial pairs in vitro.
Inhibition of isoproterenol-induced enhancement of constricted guinea pig atria
A guinea pig (500-700 g) was injected with sodium pentobarbital (50 mg/kg, ip). When anesthetized, the heart was removed and placed in cold (5°-10° C.), oxygenated Krebs-Hensleit solution. The ventricles and adipose tissue were carefully cut away to leave the atria as an intact pair. A thread was tied to the apex of each atrium and the tissue suspended in a 50 ml tissue bath, attached to a force-displacement transducer. A diastolic tension of 1 g was maintained. Atrial contraction rate was measured using biotachometer, driven by the transducer amplifier.
A 30 minute stabilization period was allowed before obtaining the first dose response curve, during which time the tissue was washed several times with fresh solution. A concentration-response curve to isoprotererol was then determined, increasing agonist concentrations when the rate response to the previous dose had stabilized. After this determination, any β-antagonist activity of the test compound was measured via a concentration-response curve. […]

T1 sequence (H0W3H1 1-470): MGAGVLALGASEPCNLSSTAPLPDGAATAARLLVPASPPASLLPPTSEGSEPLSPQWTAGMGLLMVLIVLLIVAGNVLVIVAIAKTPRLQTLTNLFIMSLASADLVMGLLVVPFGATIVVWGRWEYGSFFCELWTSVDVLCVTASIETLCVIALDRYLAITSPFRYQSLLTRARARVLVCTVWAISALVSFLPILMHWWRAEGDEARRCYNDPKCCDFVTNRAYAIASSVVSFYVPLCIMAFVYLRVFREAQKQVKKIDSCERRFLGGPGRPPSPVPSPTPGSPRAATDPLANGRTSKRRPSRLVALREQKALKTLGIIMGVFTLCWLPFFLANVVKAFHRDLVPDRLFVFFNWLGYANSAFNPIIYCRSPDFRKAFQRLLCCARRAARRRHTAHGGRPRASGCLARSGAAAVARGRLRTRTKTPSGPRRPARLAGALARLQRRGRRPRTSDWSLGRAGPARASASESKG

COc1cc(CC2NCCc3cc(Cl)c(Cl)cc32)cc(OC)c1OC (stereo not shown) [Example 1, 6,7-dichloro-1-(3,4,5-trimethoxybenzyl)-1,2,3,4-tetrahydroisoquinoline fumarate] was tested, and the Kb was 67 nM.
